Results on two compounds are retold here after patent publication US20150297619A1, “METHODS AND COMPOSITIONS FOR PRESERVING THE MUCOSAL BARRIER” (priority 2014, published 2015).

In one experiment the test system is intestinal villi. The experiment in a line: Morphological analysis of intestinal villi after ex vivo ischemia (Van Gieson/hematoxylin). To be noted: for intestinal villi structure: jejunum and ileum after 2 hrs ex vivo ischemia. Also noted: species or system rat. Here is the method: After the two-hour ischemic incubation, intestinal pieces from segments 2 (jejunum) and 7 (ileum) were embedded in O.C.T. (Tissue Tek, Torrance, Calif.) and snap frozen in t-methyl butane in liquid nitrogen. Intestine samples from segments 2 and 7 (for protease analysis) and segment 7 (for immunoblots) were snap frozen and stored for subsequent homogenization. Morphological Analysis and TUNEL Labeling—Intestinal segments frozen in O.C.T. were cut into 5 μm sections. Sections were fixed using ice-cold methanol (8 min at −20° C.) and immediately washed four times in distilled water. Nuclei were stained by incubating sections in freshly mixed Weigert's Iron Hematoxylin A and B (Electron Microscopy Science, Hatfield, Pa.) (10 min) followed by rinsing thoroughly with water. Collagen fibers were labeled by incubating (2 min) in Van Gieson's Solution (Electron Microscopy Science). Prior to mounting, all slides were dehydrated (70, 95, 100% ethanol) and cleaned with xylene. After air-drying overnight, sections were mounted using Hard Set Mounting Media (Vector Laboratories, Burlingame, Calif.). Digital images were captured with a 20× objective (numerical aperture 0.5) and digitally montaged together after background subtraction. The separation of the mucosal epithelial layer was quantified for groups that had intact villi following the two hour ischemic period. Images were blinded and the distance between the mucosal epithelial layer and the lamina propria was measured over five lengths across a minimum of 6 villi.

A further experiment concerns hemorrhagic shock. The experiment in a line: Hemorrhagic shock model with enteral pretreatment, unflushed intestine (Example 1). Particulars: for lesions in the jejunum (gross morphology): enteral pretreatment, HS 90 min at 30 mmHg, 3 hours observation; for rate of MAP decrease during reperfusion: last 2 hours of reperfusion, mean±SD. In kind it is in vivo, rat. Here is the method: Hemorrhagic Shock Model—Hemorrhagic shock (HS) was used to study the ability of treatments, shown in the ex vivo portion of the study to preserve the barrier and protect the intestine in the absence of luminal content, to prevent intestinal injury after ischemia/reperfusion injury in vivo when luminal content is present. Following general anesthesia, the femoral artery and vein were cannulated. Systolic, diastolic, heart rate, and mean arterial pressure (MAP) were recorded throughout the procedure using LabChart (AD Instruments, Dunedin, New Zealand). Rats were randomly divided into the following groups: […] No-HS animals were cannulated and immediately sacrificed for tissue collection. In the HS groups, anesthetized rats were subjected to laparotomy and the intestine was exposed, and a “Pre-HS” image was captured. […] Extra caution was applied to avoid over-inflation of the intestine. After injection, the intestine was carefully returned to the peritoneal cavity and the wound was covered with moist gauze and plastic wrap to keep the animal warm. To prevent clotting in catheters and shed blood, animals were heparinized (1 U/ml i.v., assuming 6% blood volume per body weight) prior to inducing hemorrhagic shock. […] At the end of ischemia, the shed blood was returned to the animal (0.5 ml/min). […] Gross morphology images of the intestine were captured, “Post-HS” At the end of reperfusion, segments of intestine (jejunum; 10 cm from ligament of Treitz) were snap frozen for homogenization and embedded in O.C.T. (Tissue Tek). MPO Activity—Myeloperoxidase (MPO) activity in the intestine as a measure for neutrophil accumulation was selected as an index of reperfusion injury after hemorrhagic shock. Segments from the jejunum (about at the position of segment 2 in the ex vitro study) were homogenized with their native luminal contents (PBS pH 6.0 in 0.5% HTAB). 40 μl of 2 mg/ml intestine homogenate was added to 180 μl of PBS (pH 6.0) mixed with 0.167 mg/ml o-dianisidine dihydrochloride (Sigma-Aldrich) in duplicate and 0.001% H2O2 (w/v). Absorbance was measured kinetically at 450 nm every 5 minutes for 1 hour at 37° C. As negative controls, 180 μl of PBS (pH 6.0) was added to 20 μl of sample and the absorbance values of these samples were subtracted from the measurements with the substrate. The change in absorbance was linear within this period, and MPO activity is presented as the change in absorbance per minute per milligram of protein.

Experiment [1] concerns mucin 13, occludin, and E-cadherin. The experiment in a line: Immunoblots of epithelial barrier proteins in post-ischemic intestinal homogenates (segment 7). Further details: species or system rat. Particulars: ileum segment 7, two hour ex vivo ischemia. Here is the method:
Immunoblotting—To determine whether selected epithelial barrier proteins were degraded during ischemia, pre- and post-ischemic intestinal tissue homogenates (segment 7) were analyzed for relative levels of mucin 13, occludin, and E-cadherin.
Tissues were homogenized for immunoblot analysis in buffer (CelLytic, Sigma-Aldrich) with protease inhibitor cocktail (HALT, Thermo Scientific, 1:100 dilution) and centrifuged (1×10^4 g, 20 min). Protein concentration in supernatants was determined (BCA, ThermoScientific). To separate proteins by gel electrophoresis, 30 μg of protein/well were loaded in 8 or 12% resolving gels with 4% stacking gels and transferred to nitrocellulose membranes (Bio-Rad, Hercules, Calif.). Membranes were blocked for one hour with either 5% bovine serum albumin (BSA) or 5% nonfat milk in tris-buffered saline with 0.5% Tween-20 (TBS-T). Primary antibodies diluted in 1% BSA or 1% nonfat milk against mucin 13 (1:1000, extracellular domain, sc-66973 Santa Cruz Biotechnology, Santa Cruz, Calif.), E-cadherin (1:1000, intracellular domain, 33-4000, Invitrogen), occludin (1:1000, intracellular domain, 33-1500, Invitrogen), pancreatic trypsin (1:1000, sc-137077 Santa Cruz Biotechnology), or β-actin (1:1000, sc-130301, Santa Cruz Biotechnology) were incubated overnight at 4° C. After incubation, membranes were washed with TBS-T (3×, 10 min) before addition of goat anti-rabbit or rabbit anti-mouse secondary antibodies (Santa Cruz Biotechnology) diluted 1:1000 in TBS-T. Following secondary antibody incubation (60 min), the membranes were washed with TBS-T (3×) and developed.

In a further experiment the test system is 20 kDa serine proteases. The experiment in a line: Gelatin gel zymography of pre-ischemic intestinal homogenates renatured with inhibitor: serine protease bands. The format is biochemical, rat. To be noted: inhibitor in renaturing and developing buffer: tranexamic acid 20 mM, doxycycline 1 mg/ml, GM-6001 1 ug/ml. Here is the method: Gelatin Gel Zymography—Segments 2 and 7 from pre-ischemic intestines were homogenized (0.1 g tissue/ml homogenization buffer; PBS pH 7.4 with 0.5% hexadecyltrimethyl bromide) and centrifuged at 1.4×10^4 g for 20 minutes. Supernatants were stored at −80° C. until samples were processed.
To assess the proteolytic activities of individual proteases in intestinal tissue samples, sample volumes of 1 μl (with 2 μg of protein) were separated by gel electrophoresis in SDS-PAGE gels containing 80 μg/ml gelatin. […] The molecular weights of the proteases were estimated by use of a standard protein ladder (Invitrogen). Gels were digitized and bands were analyzed by densitometry in ImageJ (rsbweb.nih.gov/ij/).
These gels were compared to a concurrently run gel processed normally.

Each structure is given as a SMILES string.

Consider `O=C[C@H](O)[C@@H](O)[C@H](O)[C@H](O)CO` [Glucose, glucose], for which the intestinal villi structure entry in the experiment on intestinal villi is given as “attenuated”. For the same compound, the “separation between the lamina propria and the mucosal epithelial layer” value with intestinal villi (jejunum, after 2 hrs ex vivo ischemia) is on record as “still observed”. Also, in the experiment with hemorrhagic shock, the “lesions in the jejunum (gross morphology)” value is “had lesions form in the jejunum” and the “rate of MAP decrease during reperfusion” value is −0.21±0.13 mmHg/min. Further, in experiment [1], the “E-cadherin levels (immunoblot)” value is “decreased irrespective of the presence of glucose”, the “mucin 13 levels (immunoblot)” value is on record as “preserved” and the “occludin levels (immunoblot)” value is given as “preserved”.

`NC[C@H]1CC[C@H](C(=O)O)CC1` [tranexamic acid]: in the experiment on intestinal villi, the intestinal villi structure entry is “did not prevent the villi destruction”. In the experiment on hemorrhagic shock, the “lesions in the jejunum (gross morphology)” value is given as “had lesions form in the jejunum” and the “rate of MAP decrease during reperfusion” value is on record as −0.27±0.16 mmHg/min. Moreover, in experiment [1], the “mucin 13 levels (immunoblot)” value is listed as “able to preserve mucin 13 levels” and the “occludin levels (immunoblot)” value is reported as “prevented a significant decrease in occludin”. In the experiment with 20 kDa serine proteases, the “20 kDa serine protease activity bands” value is given as “no significant effect”.
